Legend:
[1] = target: T1, human creatine transporter-1 (CRT-1, SLC6A8), C-terminally YFP-tagged (Homo sapiens, UniProt P48029); assay: whole-cell patch clamp, substrate-induced transport current in transfected HEK293 cells; format: cell-based
T1 construct: full-length cDNA in pEYFP-N1, C-terminal YFP tag, transiently expressed in HEK293 cells; oligomeric state not known
T1 sequence (P48029 1-635): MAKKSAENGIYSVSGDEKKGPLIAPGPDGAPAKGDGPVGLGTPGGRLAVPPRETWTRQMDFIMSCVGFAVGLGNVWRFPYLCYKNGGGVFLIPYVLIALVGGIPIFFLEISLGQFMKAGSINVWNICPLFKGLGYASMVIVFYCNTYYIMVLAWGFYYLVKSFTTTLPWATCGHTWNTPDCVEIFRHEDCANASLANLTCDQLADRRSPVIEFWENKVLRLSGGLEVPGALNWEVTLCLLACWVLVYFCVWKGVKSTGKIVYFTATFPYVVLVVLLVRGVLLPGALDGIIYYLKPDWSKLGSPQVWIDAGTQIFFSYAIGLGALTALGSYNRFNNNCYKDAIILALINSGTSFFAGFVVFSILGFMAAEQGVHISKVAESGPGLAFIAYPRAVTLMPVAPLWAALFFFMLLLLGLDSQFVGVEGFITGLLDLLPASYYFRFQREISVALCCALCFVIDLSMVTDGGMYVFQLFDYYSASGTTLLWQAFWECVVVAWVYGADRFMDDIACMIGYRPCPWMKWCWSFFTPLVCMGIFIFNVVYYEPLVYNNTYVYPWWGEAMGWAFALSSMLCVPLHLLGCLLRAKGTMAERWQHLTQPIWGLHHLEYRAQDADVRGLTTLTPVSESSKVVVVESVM

[2] = target: T1, human creatine transporter-1 (CRT-1, SLC6A8), C-terminally YFP-tagged; assay: inhibition of [3H]creatine uptake in transfected HEK293 cells; format: cell-based

EC50 [1] [µM] | IC50 [2] [µM] | Compound
162 ± 8.49 | 167 ± 9.9 | NC1=NCCN1CC(=O)O [cyclocreatine]
103 ± 4 | 105 ± 6.7 | NC1=NCC(C(=O)O)CN1 (centres unmarked) [ATPCA, 2-amino-1,4,5,6-tetrahydropyrimidine-5-carboxylic acid]
13.2 ± 0.73 | 18.8 ± 1.1 | N=C(N)NCCC(=O)O [β-guanidinopropionic acid]
34.8 ± 1.9 | 48.4 ± 7 | CN(CC(=O)O)C(=N)N [creatine]

Source: article PMC9273935, “Cooperative Binding of Substrate and Ions Drives Forward Cycling of the Human Creatine Transporter-1” (Frontiers in Physiology, 2022)
